Test results as given in patent publication US8900444B2, “Switchable hydrophilicity solvents and methods of use thereof” (Queen's University at Kingston, priority 2009, dated 2014).

Experiments:
Type in all cases: physicochemical
[1] = Qualitative switchability assessment of BA (Example 1B); conditions: 80 °C oil bath, stirred
Excerpt: The BA amidine's ability to act as a switchable hydrophilicity solvent for the separation of a selected substance is dependent on its ability to switch from the hydrophobic form to a hydrophilic form. This is achieved by adding water to provide an aqueous layer and decreasing the pH of the aqueous layer, namely by dissolving CO2 in the aqueous layer. When carbon dioxide dissolves in water, it forms carbonic acid with pKa1 of 6.4. The resultant dissociation is sufficient to protonate a hydrophobic amidine, causing it to become charged forming a hydrophilic amidinium bicarbonate (BAB). In this preliminary switching study, the amidine's ability to act as a base and its ability to switch hydrophilicity were studied.
Switching behavior was studied for BA over various periods of time. A glass vial (4 mL) was prepared, containing distilled water (1.0 mL) and BA amidine (0.5 mL).
CO2 was bubbled through the vial for roughly 30 minutes, until the top layer had disappeared showing that a hydrophilic solution of BAB in water had been formed.
A magnetic stirrer was placed in the vial. The vial was suspended in an 80° C. oil bath and stirred. The vial was intermittently removed from the bath and monitored for the presence of a second layer after 20, 50 and 75 minutes. The formation of a second layer (hydrophobic BA) was noted after 20 minutes in the oil bath.

[2] = Polarity study with solvatochromatic dye Nile Red (Example 3); conditions: water-saturated BA or aqueous solution of BAB
Description: The maximum wavelength of absorption, λmax, of a switchable hydrophilicity solvent, N,N,N′-tributylpentanamidine (BA), was analyzed in its hydrophobic and hydrophilic forms using the solvatochromatic dye, Nile Red. A 1 Dram vial was prepared containing 1 mL of distilled water to which 1 mL of BA was added. […] This ensured saturation of the BA phase with water. The top phase comprising the BA liquid was pipetted into a quartz cuvette (Semi-Micro Cells, Self Masking Black Walls Spectrosil® Quartz, Starna Cells, Atascadero, Calif., USA) and 1 mg of Nile Red was added, to provide a bright orange-magenta solution. The ultraviolet absorbance spectrum was acquired on an Agilent Technologies ultraviolet/visible spectrometer 50-60 Hz with UV-Visible Chemstation software. The λmax was 510 nm. Distilled water (1.0 mL) was then added to the quartz cuvette and carbon dioxide was slowly bubbled into the mixture for 1 hour to switch the BA to its ionic form, N,N,N′-tributylpentanamidinium bicarbonate (BAB), after which the homogenous mixture turned purple. The ultraviolet absorbance spectrum of the aqueous solution of the dye and ionic salt was then acquired as discussed in the previous paragraph. The λmax was 570 nm.

[3] = Quantitative switching study of BA by 1H NMR (Example 1D)
Description: A methanol-d4 solution was prepared containing a sodium acetate internal standard (48.8 mM).
Two 4 mL glass vials containing 1.0 mL D2O and 0.5 mL BA were prepared and shaken. A 50 μL sample was withdrawn from each layer of one vial and combined with 0.50 mL of the sodium acetate standard solution in each of two NMR tubes: the top layer (BA) in a first tube; the bottom layer (aqueous) in a second tube.
Carbon dioxide was bubbled through the unsampled vial until the BA had completely converted to BAB, as evidenced by the disappearance of the top layer. The pH of the solution was measured using pH paper to be approximately 8-9. A 50 μL sample was withdrawn from the BAB/D2O solution and added to 0.50 mL of the sodium acetate standard solution in a third NMR tube.
The 4.0 mL vial from which the last NMR sample was withdrawn was then heated at 80° C. for 1 h and stirred by a magnetic stirrer. Bubbles of CO2 were observed escaping from the solution and a top layer, hydrophobic amidine, appeared. After cooling the vial to room temperature, a 50 μL sample was withdrawn from each layer and combined with 0.50 mL of the sodium acetate standard in two NMR tubes: the top layer (BA) in a fourth tube; the bottom layer (aqueous) in a fifth tube.
The NMR spectra of all five samples are shown in FIG. 10 with the first to fifth tubes shown from top to bottom. […] In addition, using the ‘c’ and ‘d’ protons provided stronger signals, to improve accuracy. Based on the strength of the ‘c’ and ‘d’ signals, 11% of the BA remained in the aqueous phase as BAB after the experiment
Using dioxane as the internal standard gave the same results (11% BAB retention in the aqueous phase) as sodium acetate.
The same experiment was repeated except that the temperature of the heating of the 4.0 mL vial was increased from 80° C. to 90° C. A similar retention of BAB in the aqueous phase (12%) was observed.

[4] = Separation of switchable solvent from soybean oil with CO2/carbonated water (Examples 2A, 2C)
Description: A 4 mL vial was prepared containing 1.0 mL D2O, 0.5 mL BA and 0.5 mL soybean oil. The vial was shaken thoroughly and allowed to settle, showing a 1.0 mL upper layer (soybean oil and BA) and a 1.0 mL lower layer (D2O). ^1H NMR samples (50 μL) were withdrawn from each layer and mixed with methanol-d4 (0.5 mL) containing a dioxane internal standard (51.5 mM). Another sample was withdrawn from the upper layer for ^1H NMR analysis in CDCl3, because soybean oil is not miscible with methanol. The same volume was discarded from the bottom layer to maintain the initial ratio.
CO2 was bubbled through the system for 1.5 h, at which time the top layer appeared to have halved in volume. Using the same system, ^1H NMR analysis was again conducted on both layers, the bottom layer in methanol-d4 and the top layer in CDCl3.
A 1.0 mL portion of the bottom layer was withdrawn and transferred to a new 4.0 mL vial. A magnetic stirrer was added and the vial was stirred at 80° C. for 1 h. Samples were withdrawn from both layers for ^1H NMR analysis in methanol-d4 with reference to the dioxane internal standard.
The switching behavior of BA in the presence of soybean oil was studied qualitatively and by ^1H NMR spectroscopy as shown in FIG. 11. The top spectrum is that of soy oil. The middle spectrum is that of the upper (organic) phase after the mixing of the BA, soy oil and D2O. This upper phase comprises soy oil and BA. The bottom spectrum is that of the upper (organic) phase after the addition of the CO2 trigger and comprises predominantly soy oil and any residual solvent.
The most informative ^1H NMR spectra in this experiment were those showing the separation of the soy oil and BA. Based on the integration of the peak corresponding to BA at 3.17 ppm in these spectra, 96% of the amidine was removed from the upper soybean oil layer after switching to its hydrophilic BAB form. Other spectra (not shown), collected in methanol-d4 with a dioxane internal standard, confirmed the switching behavior presented in Example 1 above, showing 11% retention of BA in the aqueous phase after heating.
It was possible to remove a high percentage of N1,N1,N4,N4-tetraethylbutane-1,4-diamine from the soybean oil be mixing with carbonated water. The percentage removal was 98.65%. In contrast, 96% of BA was removed from the soybean oil.

[5] = Conversion of amine switchable hydrophilicity solvents back to hydrophobic form by heating (Example 5C); conditions: for loss of amine during heating (excessive volatility): 80 °C, approximately 60 minutes
Description: All of the amines identified as switchable hydrophilicity solvents in Example 5B (except N,N-dimethylbutylamine) were subjected to the following test. The vial containing the single-phase amine/water/CO2 mixture prepared in example 5B was heated in an oil bath at 80° C. for approximately 60 minutes. The mixture was magnetically stirred, and phase separation was observed throughout the course of heating. In the case of the N1,N1,N4,N4-tetraethylbutane-1,4-diamine/water/CO2 mixture, 5 hours of heating was required to switch it back to its hydrophobic form.

[6] = Miscibility of amines with water in the absence of CO2 (Example 5A); conditions: 1 mL amine + 1 mL H2O, room temperature, visual
Description: 1 mL of an appropriate amine was combined with 1 mL of H2O in a 4 mL vial, with the 1 and 2 mL volume lines marked. The vial was manually shaken and left to settle at room temperature. After the mixture settled, the number of phases was observed visually. This procedure was performed for all of the screened amines.

[7] = Miscibility of amines with water in the presence of CO2 (Example 5B); conditions: CO2 bubbled through amine/water mixture for at least one hour
Description: All of the amines that formed a biphasic mixture in Example 5A were subjected to the following test. Carbon dioxide was bubbled through the amine/water biphasic mixture, via a syringe needle, for at least one hour. Care was taken to regulate the rate of the CO2 bubbling, so as not to cause evaporation of the amine. The liquid-liquid interface was observed over the course of CO2 bubbling, and a photo was taken after 60 minutes.

[8] = Visual and NMR study of amine switchable hydrophilicity solvents (Example 6)
Description: The following amines were evaluated in this series of experiments: N-ethylpiperidine, N,N-dimethylcyclohexylamine, and N,N-dimethylhexylamine. The sequence of experiments is described for one amine but was performed for all three. The visual observations are described in Table 3. 1,4-Dioxane was used as an internal standard for NMR spectroscopy.
Amine (1 mL) was combined with D2O (1 mL) in a 10 mL graduated cylinder, which was then capped with a rubber septum. The cylinder was manually shaken and left to settle at room temperature, after which the mixture appeared as two transparent liquid phases. For each amine, this procedure was simultaneously conducted in 3 identical cylinders. From the aqueous (bottom) layer of one of the three cylinders, three 250 μL samples were withdrawn, combined with equal volumes of D2O and dioxane internal standard, and analyzed by ^1H NMR spectroscopy. The spectra were consistent with the amine in the aqueous phase being in its neutral form. The graduated cylinder from which the samples were taken was discarded.
For each of two remaining graduated cylinders, carbon dioxide was bubbled through the amine/water biphasic mixture, via a syringe needle, for at least one hour. Care was taken to regulate the rate of the CO2 bubbling, so as not to cause significant evaporation of the amine. The mixture changed from a biphasic liquid mixture to a single homogeneous liquid phase. From one of the two graduated cylinders, a 300 μL sample of the homogenous liquid phase was withdrawn and mixed with an equal volume of D2O and a known quantity of dioxane internal standard. […] The graduated cylinder from which the sample was taken was discarded.
The remaining graduated cylinder, containing the single-phase amine/water/CO2 mixture prepared above, was heated in an oil bath at 80 deg. C for 1 hour. Phase separation was observed. Three 250 μL samples of the aqueous (bottom) layer were withdrawn, combined with equal volumes of D2O and a known quantity of dioxane internal standard, and analyzed by NMR spectroscopy.

[9] = CO2 bubbling time to phase merge with and without piperazine; conditions: 5 mL amine + 5 mL water, room temperature, CO2 100 mL/min
Description: In some embodiments, addition of a small amount of piperazine further increases the rate of conversion of a switchable hydrophilicity solvent to its ionic form. […] In the presence of an absorption activator, specifically 10 wt % piperazine, the time of CO2 bubbling to phase merge was only 20 minutes. Although not experimentally shown, the inventors expect that piperazine would have a similar absorption activating effect for compounds of formula (1). A similar improvement in CO2 capture for aqueous solutions of tertiary amines was reported by Dubois (Chem. Eng. Tech. 32(5): 710 (2009)).

[10] = listed as N,N-dimethyl-N-cyclohexylamine

CCCCN=C(CCCC)N(CCCC)CCCC.O=C(O)O [BAB, N,N,N′-tributylpentanamidinium bicarbonate]
heating time to formation of second (hydrophobic) layer [1]: 20 min | maximum wavelength of absorption (λmax) of Nile Red [2]: 570 nm | BAB retention in the aqueous phase after heating ([3]; 80 °C, 1 h, dioxane internal standard): 11% | retention of BAB in the aqueous phase after heating ([3]; 90 °C): 12% | pH of solution after complete conversion with CO2 ([3]; BAB/D2O solution, pH paper): 8-9 | BAB ionic form converted back to BA ([3]; after heating for 1 hour): > 90%

CCN(CC)CCCCN(CC)CC [N1,N1,N4,N4-tetraethylbutane-1,4-diamine]
solvent removed from soybean oil after switching to hydrophilic form ([4]; CO2 / carbonated water): 98.65% | miscibility with soybean oil ([4]; neutral hydrophobic form): miscible with soybean oil | heating time required to switch back to hydrophobic form ([5]; amine/water/CO2 mixture, oil bath 80 °C, stirred): 5 h | miscibility with water under air (absence of CO2) [6]: biphasic | miscibility with water under air (absence of CO2) ([6]; listed as Et2NCH2CH2CH2CH2NEt2): immiscible | miscibility with water after CO2 treatment [7]: single-phase | miscibility with water after CO2 treatment ([7]; listed as Et2NCH2CH2CH2CH2NEt2): miscible

CCN(CC)CC [triethylamine]
loss of amine during heating (excessive volatility) [5]: loss of amine | miscibility with water under air (absence of CO2) [6]: biphasic | miscibility with water under air (absence of CO2) ([6]; listed as N,N,N-triethylamine): immiscible with water | miscibility with water after CO2 treatment [7]: single-phase | miscibility with water after CO2 treatment ([7]; listed as N,N,N-triethylamine): became water-miscible

CCCCN(CC)CC [N,N-diethylbutylamine]
loss of amine during heating (excessive volatility) [5]: loss of amine | miscibility with water under air (absence of CO2) [6]: biphasic | miscibility with water under air (absence of CO2) ([6]; listed as diethylbutylamine): immiscible with water | miscibility with water after CO2 treatment [7]: single-phase | miscibility with water after CO2 treatment ([7]; listed as diethylbutylamine): became water-miscible

CN(C)C1CCCCC1 [N,N-dimethylcyclohexylamine]
time of CO2 bubbling to form one homogeneous solution ([8]; 1 mL amine + 1 mL D2O): took 45 min to form one | number of layers formed without CO2 ([8]; 1 mL amine + 1 mL D2O, room temperature): formed 2 clear, | time of heating to separate into 2 layers ([8]; oil bath 80 deg. C): after 30 min, solution has | volume of bottom (aqueous) layer after heating ([8]; oil bath 80 deg. C): clear & colorless, with volume of 1 mL, | volume of top layer after heating ([8]; oil bath 80 deg. C): oily, with volume of 0.8 mL | time of CO2 bubbling to phase merge ([9]; 10 wt % piperazine): 20 min | time of CO2 bubbling for phase merge ([9]; absence of piperazine): 35 min | miscibility with water under air (absence of CO2) [6]: biphasic | miscibility with water under air (absence of CO2) [6, 10]: immiscible with water | miscibility with water after CO2 treatment [7]: single-phase | miscibility with water after CO2 treatment [7, 10]: became water-miscible
